Measured values reported in US20250304535A1, “KAT6 Inhibitors” (BeiGene Switzerland GmbH, priority 2024, published 2025).

What was measured:
[1] = target: Recombinant human KAT6A protein (497-780) (Homo sapiens (Human), UniProt Q92794); assay: KAT6A biochemical TR-FRET assay; settings: histone H4 peptide 2000 nM, AcCoA 300 nM, enzyme 5 nM
Experimental: Enzymatic reactions of KAT6A and KAT6B were performed using Fluorescence Resonance Energy Transfer (TR-FRET) assay, which measures acetylation of a synthetic, biotinylated histone-H4 peptide by the KAT6A and KAT6B enzymes. Recombinant human KAT6A protein (497-780) were expressed in BL21 cell using an E. coli expression system. Recombinant human KAT6B protein (657-1069) was expressed in sf9 cell using a baculovirus expression system. […] Acetyl coenzyme A was purchased from Sigma-Aldrich (#A-2056).
Testing for the inhibition activities of various compounds disclosed herein was carried out at room temperature in assay buffer containing 100 mM Tris/HCl Ph7.8, 15 mM NaCl, 0.01% chicken egg white albumin, 1 mM DTT and 0.01% Tween-20. Compounds in DMSO were dispensed into wells of a black, 384-well plate (Corning 4514) using ECHO555 (Beckman). The final concentration ranges of the test compounds were 0.0625-1,000 nM, 0.625-10,000 nM, or 0.313-5,000 nM. Five μL of KAT6A or KAT6B enzyme solution were added to wells, and the plate was incubated for 1 hour at room temperature (rt). After incubation for 1 hour at rt, 5 μL H4 and AcCoA substrate solutions were added to the wells to initiate reaction, and the plate was incubated. After 2 hours reaction, 5 μL detection reagent were added to the wells, and the plate was incubated for 2 hours. After two hours incubation, detection reagent containing 5 nM Anti-histone H4 antibody (ABCAM #ab177790), 100 μM formic acid (sigma #06473-100ML), 0.1 test/μL streptavidin-XL665 (PerkinElmer #610SAXLG), 0.05 test/μL PAb anti-rabbit IgG-Eu (PerkinElmer μ61PARKLA) was added to the wells. TR-FRET was measured on a microplate reader (PHERAstar FSX, BMG labtech). […] In Table 6, I≤5 nM, 5 nM<II≤50 nM.

[2] = test system: histone H3K23 acetylation in U-2 OS cells; assay: Histone H3 lysine 23 acetylation assay in U-2 OS cells (high content analysis); format: cell-based; settings: Homo sapiens, U2OS, 24 hrs exposure, H3K23ac level
Experimental: Assay B: Histone H3 lysine 23 Acetylation Assay
Compounds were tested for their capacity to suppress the histone H3K23 acetylation in the following high content analysis assay.
The cell line U-2 OS (ATCC HTB-96) was seeded at a density of 2000 cells per well in black 384 well cell culture/imaging microplates in 45 μl McCoy's 5A medium with […]. After overnight incubation in 37° C., 5% CO2 incubator, cells were then treated with a 9-point dilution series of compounds and a blank control group with medium containing 0.1% DMSO.
Following a 24 hrs exposure to the compounds, the cells were fixed with 4% immunohistochemical fixative for 20 mins at room temperature, washed with DPBS with 2% fetal bovine serum, and permed with Perm Buffer III for 30 min on ice, washed with DPBS with 2% fetal bovine serum. Then the cells were blocked with Odyssey blocking buffer containing 0.1% Tween 20. 20 ul Anti-Histone H3 (acetyl K23) antibody (Abcam, ab177275) in odyssey blocking buffer containing 0.1% Tween20 was added and incubated overnight at 4° C. After incubation, the cells were washed for 3 times and a secondary antibody Anti-rabbit IgG (H+L), F(ab′)2 Fragment (Alexa Fluor® 647 Conjugate) (CST, 4414S) were added into cells for one hour. The cells were washed and 1 ug/ml DAPI (Thermo, 62248) were added for 10 min. Then cells were washed and read on the PerkinElmer Operetta CLS high content analysis system. The nuclei were identified by DAPI and H3K23ac level was calculated from the Alexa Fluor 647 intensity in the nuclei. Inhibition rate of H3K23ac was calculated as the mean intensity of cells per well relative to blank controls on the same plate.

[3] = target: Recombinant human KAT6B protein (657-1069) (Homo sapiens (Human), UniProt Q8WYB5); assay: KAT6B biochemical TR-FRET assay; settings: histone H4 peptide 1000 nM, AcCoA 100 nM, enzyme 5 nM
Experimental: Enzymatic reactions of KAT6A and KAT6B were performed using Fluorescence Resonance Energy Transfer (TR-FRET) assay, which measures acetylation of a synthetic, biotinylated histone-H4 peptide by the KAT6A and KAT6B enzymes. Recombinant human KAT6A protein (497-780) were expressed in BL21 cell using an E. coli expression system. Recombinant human KAT6B protein (657-1069) was expressed in sf9 cell using a baculovirus expression system. Histone H4 peptide (SEQ ID NO: 1—[…]-GGK-Biotin), which was used as substrate, was synthesized by GL Biochem, Shanghai, China. Acetyl coenzyme A was purchased from Sigma-Aldrich (#A-2056).
Testing for the inhibition activities of various compounds disclosed herein was carried out at room temperature in assay buffer containing 100 mM Tris/HCl Ph7.8, 15 mM NaCl, 0.01% chicken egg white albumin, 1 mM DTT and 0.01% Tween-20. Compounds in DMSO were dispensed into wells of a black, 384-well plate (Corning 4514) using ECHO555 (Beckman). The final concentration ranges of the test compounds were 0.0625-1,000 nM, 0.625-10,000 nM, or 0.313-5,000 nM. Five μL of KAT6A or KAT6B enzyme solution were added to wells, and the plate was incubated for 1 hour at room temperature (rt). After incubation for 1 hour at rt, 5 μL H4 and AcCoA substrate solutions were added to the wells to initiate reaction, and the plate was incubated. After 2 hours reaction, 5 μL detection reagent were added to the wells, and the plate was incubated for 2 hours. After two hours incubation, detection reagent containing 5 nM Anti-histone H4 antibody (ABCAM #ab177790), 100 μM formic acid (sigma #06473-100ML), 0.1 test/μL streptavidin-XL665 (PerkinElmer #610SAXLG), 0.05 test/μL PAb anti-rabbit IgG-Eu (PerkinElmer μ61PARKLA) was added to the wells. TR-FRET was measured on a microplate reader (PHERAstar FSX, BMG labtech). The IC50s were calculated based on inhibition of enzyme activity in the presence of increasing concentrations of test compounds, and the results are shown in Table 6. In Table 6, I≤5 nM, 5 nM<II≤50 nM.

Sequence of Recombinant human KAT6B protein (657-1069) (Q8WYB5 657-1069): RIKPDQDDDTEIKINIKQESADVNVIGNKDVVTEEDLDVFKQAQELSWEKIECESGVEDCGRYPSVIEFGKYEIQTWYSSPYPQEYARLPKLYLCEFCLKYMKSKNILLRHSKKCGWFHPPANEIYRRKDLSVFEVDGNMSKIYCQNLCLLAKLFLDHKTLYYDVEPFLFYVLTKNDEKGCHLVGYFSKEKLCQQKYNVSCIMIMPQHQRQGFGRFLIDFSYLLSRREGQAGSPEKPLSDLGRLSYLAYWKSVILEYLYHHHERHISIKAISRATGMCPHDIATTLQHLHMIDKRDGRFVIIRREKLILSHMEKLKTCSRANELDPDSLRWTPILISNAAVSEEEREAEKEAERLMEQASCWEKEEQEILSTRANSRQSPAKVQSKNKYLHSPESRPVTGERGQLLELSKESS
Sequence of Recombinant human KAT6A protein (497-780) (Q92794 497-780): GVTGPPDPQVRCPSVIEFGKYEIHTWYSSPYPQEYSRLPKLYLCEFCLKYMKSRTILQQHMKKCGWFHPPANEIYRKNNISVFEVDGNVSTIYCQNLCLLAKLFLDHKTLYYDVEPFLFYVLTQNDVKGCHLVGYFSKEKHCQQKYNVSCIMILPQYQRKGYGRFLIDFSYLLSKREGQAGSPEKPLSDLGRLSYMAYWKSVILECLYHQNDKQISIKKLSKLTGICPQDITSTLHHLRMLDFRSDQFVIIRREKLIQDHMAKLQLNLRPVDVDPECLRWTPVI

Work on `COc1ccc(C(C)(C)C)cc1S(=O)(=O)NC(=O)c1ccc(Cn2cccn2)c(C2CCO2)c1` (stereo not drawn) [Example C18, 4-((1H-pyrazol-1-yl)methyl)-N-((5-(tert-butyl)-2-methoxyphenyl)sulfonyl)-3-(oxetan-2-yl)benzamide] yielded an IC50 [1] of no more than 5 nM, an IC50 [2] of no more than 10 nM and an IC50 [3] of no more than 5 nM.

Work on `COc1ccc(C(C)(C)C)nc1S(=O)(=O)NC(=O)c1ccc(Cn2cccn2)c(C2COC2)c1` [Example C19, 4-((1H-pyrazol-1-yl)methyl)-N-((6-(tert-butyl)-3-methoxypyridin-2-yl)sulfonyl)-3-(oxetan-3-yl)benzamid] yielded an IC50 [1] of no more than 5 nM, an IC50 [2] of 10 to 100 nM and an IC50 [3] of no more than 5 nM.

Work on `COc1ccc(C(C)(C)C)nc1S(=O)(=O)NC(=O)c1ccc(Cn2cccn2)c(N2CCC2)c1` [Example C20, 4-((1H-pyrazol-1-yl)methyl)-3-(azetidin-1-yl)-N-((6-(tert-butyl)-3-methoxypyridin-2-yl)sulfonyl)benzamide] yielded an IC50 [1] of no more than 5 nM, an IC50 [2] of no more than 10 nM and an IC50 [3] of no more than 5 nM.

Work on `COc1ccc(C(C)(C)C)nc1S(=O)(=O)NC(=O)c1ccc(Cn2cccn2)c(C2CCC2)c1` [Example C21, 4-((1H-pyrazol-1-yl)methyl)-N-((6-(tert-butyl)-3-methoxypyridin-2-yl)sulfonyl)-3-cyclobutyl-benzamide] yielded an IC50 [1] of no more than 5 nM, an IC50 [2] of no more than 10 nM and an IC50 [3] of no more than 5 nM.

`COc1ccc(C(C)(C)C)nc1S(=O)(=O)NC(=O)c1ccc(Cn2cccn2)c(Cl)c1` [Example C22, 4-((1H-pyrazol-1-yl)methyl)-N-((6-(tert-butyl)-3-methoxypyridin-2-yl)sulfonyl)-3-chlorobenzamide] gave an IC50 [1] of no more than 5 nM, an IC50 [2] of no more than 10 nM and an IC50 [3] of no more than 5 nM.

In the case of `CCc1cc(C(=O)NS(=O)(=O)c2nc(C(C)(C)C)ccc2OC)ccc1Cn1cccn1` [Example C23, 4-((1H-pyrazol-1-yl)methyl)-N-((6-(tert-butyl)-3-methoxypyridin-2-yl)sulfonyl)-3-ethylbenzamide], the IC50 [1] is reported as no more than 5 nM, the IC50 [2] is reported as no more than 10 nM and the IC50 [3] is reported as no more than 5 nM.

Work on `COc1ccc(C(C)(C)C)nc1S(=O)(=O)NC(=O)c1ccc(Cn2cccn2)c(F)c1` [Example C24, 4-((1H-pyrazol-1-yl)methyl)-N-((6-(tert-butyl)-3-methoxypyridin-2-yl)sulfonyl)-3-fluorobenzamide] yielded an IC50 [1] of no more than 5 nM, an IC50 [2] of 10 to 100 nM and an IC50 [3] of no more than 5 nM.

With `COc1ccc(C(C)(C)C)nc1S(=O)(=O)NC(=O)c1ccc(Cn2cccn2)c(C(F)(F)F)c1` [Example C25, 4-((1H-pyrazol-1-yl)methyl)-N-((6-(tert-butyl)-3-methoxypyridin-2-yl)sulfonyl)-3-(trifluoromethyl)benzamide] the IC50 [1] was no more than 5 nM, the IC50 [2] was no more than 10 nM and the IC50 [3] was no more than 5 nM.

Compound `COc1ccc(C(C)(C)C)nc1S(=O)(=O)NC(=O)c1ccc(Cn2cccn2)c(Br)c1` [Example C26, 4-((1H-pyrazol-1-yl)methyl)-3-bromo-N-((6-(tert-butyl)-3-methoxypyridin-2-yl)sulfonyl)benzamide] has an IC50 [1] of no more than 5 nM, an IC50 [2] of no more than 10 nM and an IC50 [3] of no more than 5 nM.

`COc1cc(C(=O)NS(=O)(=O)c2nc(C(C)(C)C)ccc2OC)ccc1Cn1cccn1` [Example C27, 4-((1H-pyrazol-1-yl)methyl)-N-((6-(tert-butyl)-3-methoxypyridin-2-yl)sulfonyl)-3-methoxy-benzamide] showed an IC50 [1] of no more than 5 nM, an IC50 [2] of no more than 10 nM and an IC50 [3] of no more than 5 nM.

`COc1cc(C(=O)NS(=O)(=O)c2cc(C3(OC)CC3)ccc2OC)ccc1Cn1cccn1` [Example C28, 4-((1H-pyrazol-1-yl)methyl)-3-methoxy-N-((2-methoxy-5-(1-methoxy-cyclopropyl)phenyl)sulfonyl)benzamide] was tested, and the IC50 [1] was no more than 5 nM, the IC50 [2] was no more than 10 nM and the IC50 [3] was no more than 5 nM.

Compound `COc1ccc(C(C)(C)C)cc1S(=O)(=O)NC(=O)c1ccc(Cc2ccccn2)c(C)c1` [Example C29, N-((5-(tert-butyl)-2-methoxyphenyl)sulfonyl)-3-methyl-4-(pyridin-2-ylmethyl)benzamide] has an IC50 [1] of no more than 5 nM, an IC50 [2] of no more than 10 nM and an IC50 [3] of no more than 5 nM.

With `COc1ccc(C(C)(C)C)nc1S(=O)(=O)NC(=O)c1ccc(Cn2cccn2)c(OC(F)F)c1` [Example C30, 4-((1H-pyrazol-1-yl)methyl)-N-((6-(tert-butyl)-3-methoxypyridin-2-yl)sulfonyl)-3-(difluoromethoxy)benzamide] the IC50 [1] was no more than 5 nM, the IC50 [2] was no more than 10 nM and the IC50 [3] was no more than 5 nM.

`COc1ccc(C(C)(C)C)nc1S(=O)(=O)NC(=O)c1ccc(Cn2cccn2)c(CC(F)F)c1` [Example C31, 4-((1H-pyrazol-1-yl)methyl)-N-((6-(tert-butyl)-3-methoxypyridin-2-yl)sulfonyl)-3-(2,2-difluoroethyl)benzamide] was tested, and the IC50 [1] was no more than 5 nM, the IC50 [2] was 10 to 100 nM and the IC50 [3] was no more than 5 nM.

Compound `COc1cc(C(=O)NS(=O)(=O)c2nc(C(C)(C)C)ccc2OC)ccc1Cc1ccccn1` [Example C32, N-((6-(tert-butyl)-3-methoxypyridin-2-yl)sulfonyl)-3-methoxy-4-(pyridin-2-ylmethyl)benzamide] has an IC50 [1] of no more than 5 nM, an IC50 [2] of no more than 10 nM and an IC50 [3] of no more than 5 nM.

`COc1cc(C(=O)NS(=O)(=O)c2nc(C(C)(C)C)ccc2OC)ccc1Cn1ccc(C)n1` [Example C33, N-((6-(tert-butyl)-3-methoxypyridin-2-yl)sulfonyl)-3-methoxy-4-((3-methyl-1H-pyrazol-1-yl)methyl)benzamide] was tested, and the IC50 [1] was no more than 5 nM, the IC50 [2] was no more than 10 nM and the IC50 [3] was no more than 5 nM.

Work on `CCOc1nc(C(=O)NS(=O)(=O)c2nc(C(C)(C)C)ccc2OC)ccc1Cn1cccn1` [Example C34, 5-((1H-pyrazol-1-yl)methyl)-N-((6-(tert-butyl)-3-methoxypyridin-2-yl)sulfonyl)-6-ethoxy-picolinamide] yielded an IC50 [1] of no more than 5 nM, an IC50 [2] of no more than 10 nM and an IC50 [3] of no more than 5 nM.

Compound `COc1ccc(C(C)(C)C)cc1S(=O)(=O)NC(=O)c1ccc(Cc2ccccn2)c(C)n1` [Example C35, N-((5-(tert-butyl)-2-methoxyphenyl)sulfonyl)-6-methyl-5-(pyridin-2-ylmethyl)picolinamide] has an IC50 [1] of no more than 5 nM, an IC50 [2] of no more than 10 nM and an IC50 [3] of no more than 5 nM.
